Patent publication US20090082429A1, “Antimicrobial Compositions and Methods of Use” (priority 2003, published 2009)
≈ marks a conversion by molar mass, not a printed value. Entries after “also recorded” stand apart in the source; their conditions may differ. Read-outs that look alike come from different tables or passages of the source.

Legend:
staphylococcal = details: stated or reported, no test in the patent; cited from earlier work
EMRSA-15 = assay: Minimum inhibitory concentration (MIC) testing in 96-well microtitre trays; assay type: cell-based, S. aureus
From the text: (§1) Reagents and bacterial strains: 3-O-(−)-epicatechingallate and (+)-catechin were provided by the Tokyo Food Techno Co., Tokyo, Japan. Octanoic acid and oxacillin were purchased from Sigma (Poole, United Kingdom). The acyl-(+)-catechin derivatives and octanoyl-(−)-epicatechin were synthesised as outlined below. S. aureus BB568 (COL-type strain that carries mecA and pT181) and BB551 (methicillin-sensitive) were provided by Professor B. Berger-Baechi. EMRSA-15 and EMRSA-16 were clinical isolates from the Royal Free Hospital, London. Strains of S. aureus can be considered resistant to methicillin in which growth occurs in the presence of 8 microgram/ml methicillin (National Committee for Clinical Laboratory Standards, 1990—Methods for dilution antimicrobial susceptibility tests for bacteria that grow aerobically (second edition). Document M7-A2. NCCLS, Villanova, Pa., U.S.A.).
(§2) S. aureus ATCC29213 was used as the standard.

EMRSA-16 [1] = assay: as above; assay type: cell-based, S. aureus
From the text: as §1, §2

S. aureus BB568 = assay: as above; assay type: cell-based
From the text: as §1, §2

S. aureus = assay: MIC testing, summary over the three strains tested; assay type: cell-based
From the text: as §1, §2

EMRSA-16 [2] = assay: Effect on bacterial growth (viable counts, CFU/ml); assay type: cell-based, S. aureus; details: for reduction in cell numbers: over six hours
Procedure: Effect on bacterial growth: EMRSA-16 was grown overnight in Mueller-Hinton broth at 37° C. The overnight culture as diluted 1:400 into 50 ml volumes of pre-warmed (37° C.) Mueller-Hinton broth containing various concentrations of contemplated compounds. The control flask contained ethanol (1 vol %). The flasks were incubated at 37° C. with aeration (200 rpm). At two-hour intervals samples were withdrawn from the flasks, serially diluted in 0.1M phosphate-buffered saline (pH 7.4) solutions, and plated onto nutrient agar (Oxoid). The number of colonies was recorded at 24 h incubation at 37° C. and expressed as the number of CFU/ml.

[3] = tested on: Erythrocytes from defibrinated Horse blood; assay: Erythrocyte haemolysis; assay type: cell-based; details: 10 min
Procedure: Erythrocyte haemolysis: Erythrocytes from defibrinated Horse blood (Oxoid) were collected by centrifugation (6,000×g, 3 min) and washed three to four times in 10 mM Tris-HCI (pH 7.4) containing 0.9% NaCI. The erythrocytes were resuspended to 1% in the wash buffer and 200 microliter of cells was added to 1300 microliter of buffer containing the test compound. The sample was mixed gently for 10 min at room temperature and the intact erythrocytes were removed by centrifugation (6,000×g, 3 min). Haemolysis was evaluated by measuring the absorbance of the supernatant at 540 nm. Cells were added to buffer containing 0.5% NH4OH to give an indication of 100% lysis. The results were expressed as a percentage of absorbance reading for 100% lysis. Buffer containing only washed erythrocytes was used to assess the extent of lysis in the absence of the test compound.
Hemolysis: The amount hemoglobin released from horse blood erythrocytes after exposure to the compounds for 10 min was used to assess the effect of the compounds on eukaryotic membranes.

EMRSA-16 [4] = assay: Bacterial membrane damage (BacLight kit, SYTO 9/propidium iodide) and CFU after 10 min exposure; assay type: cell-based, S. aureus; details: for Membrane Effect % Control (BacLight) / Delta Log 10 (CFU/ml): 10 min exposure; for Delta Log 10 (CFU/ml): Log10 decrease vs control
Procedure: Bacterial membrane damage: EMRSA-16 was grown overnight in Mueller-Hinton broth at 37° C. The overnight culture was diluted 1:40 into fresh pre-warmed Mueller-Hinton broth and the diluted culture incubated at 37° C., with aeration (200 rpm), until the optical density at 600 nm (OD600) reached 0.7-0.8. The cells were recovered by centrifugation (10.000×g for 10 min), washed once with filtered-sterilized water, and resuspended to 1:10 the original volume in filter-sterilized water. The culture was further diluted 1:20 into water containing ethanol (1 vol %; the solvent was used to dissolve the compounds) or water containing the catechin. The cells were exposed to the compounds for 10 min (at room temperature and gentle shaking), after which a sample was removed for CFU determination and the remainder of the cells were recovered by centrifugation (10.000×g for 10 min). The cell pellet was washed once with water and then resuspended to an OD670 of 0.15.
Damage to the bacterial cytoplasmic membrane was determined with the reagents (SYTO 9 and propidium iodide) contained in the BacLight kit from Molecular Probes Europe BV (Leiden, The Netherlands). An equal mixture (4.5 microliter each) of SYTO 9 dye and propidium iodide was added to 3 ml of sample in a cuvette and the sample mixed by inversion of the cuvette three times. The sample was maintained in the dark for 15 min and the fluorescence of the two dyes was determined with a spectrofluorometer (Jacso FP-750). Both dyes were excited with a wavelength of 485 nm and the emission of SYTO 9 was read at 530 nm (Em1) and propidium iodide was read at 645 nm (Em2). The ratio of SYTO 9 to propidium iodide emissions (R=Em1/Em2) was expressed as a percentage of the control (BacLight value=[Rsample/Rcontrol]×100). The sample removed for CFU determination was serially diluted in 0.1M phosphate-buffered saline (pH 7.4) then plated onto nutrient agar. The number of colonies on the plates was recorded after 24 h incubation at 37° C. and the results expressed as a Log10 decrease in CFU/ml compared to the control sample.
Staphylococcal membrane damage: Damage to the staphylococcal cytoplasmic membrane was assessed by use of the BacLight kit (Molecular Probes Inc.). The kit makes use of two nucleic acid stains, SYTO-9 and propidium iodide, with different spectral properties and abilities to penetrate intact bacterial membranes. SYTO-9 penetrates both intact and damaged membranes while propidium iodide only penetrates damaged membranes. Cells with intact membranes stain fluorescent green while cells with damaged membranes stain fluorescent red. The ratios of green to red fluorescence, for EMRSA-16 exposed to test compounds, are expressed as a percentage of the control and are given in the table below.

S. aureus BB551 = assay: Electron microscopy, effect on cell wall morphology; assay type: cell-based; details: grown overnight in the presence of the compound; electron micrograph
Procedure: Electron microscopy: S. aureus BB551 was grown overnight at 37° C. in Mueller-Hinton broth in the absence and presence of either epicatechin-(−)-gallate or octanoyl-(+)-catechin. The cells were recovered by centrifugation and washed once in 0.1M phosphate-buffered saline, pH 7.4. Cells were fixed in 1.5% glutaraldehyde for at least 2 h at room temperature, treated with osmium tetroxide and embedded in epoxy resin. Sectioning and staining with uranyl acetate was followed by Reynolds' lead citrate. The ultrathin sections were viewed and photographed using a Philips 201 transmission electron microscope.

[5] = EMRSA-15; MIC of the compound itself; 35° C., 24 h
[6] = EMRSA-15; oxacillin MIC in the presence of the compound (tested at 0.25×MIC)
[7] = EMRSA-16; MIC of the compound itself; 35° C., 24 h
[8] = EMRSA-16; oxacillin MIC in the presence of the compound (tested at 0.25×MIC)
[9] = BB568; MIC of the compound itself; 35° C., 24 h
[10] = BB568; oxacillin MIC in the presence of the compound (tested at 0.25×MIC)
[11] = Staphylococcus aureus, 24 h, read-out: MIC Catechin
[12] = Staphylococcus aureus, 24 h; read-out: MIC Catechin

CCCCCCCCCC=CCCCCC(=O)O (single isomer, unassigned) [palmitoleic acid isomer (C16:1delta6)]
anti-staphylococcal activity (staphylococcal): anti-staphylococcal activity

CCCCCCCCCCCCCCCCCC(=O)O[C@H]1Cc2c(O)cc(O)cc2O[C@@H]1c1ccc(O)c(O)c1 [3-O-staeoryl-(+)-catechin, 3-O-stearoyl-(+)-catechin]
MIC Catechin (EMRSA-15; [5]): >32 MICROGRAM/ML | MIC Oxacillin (EMRSA-15; [6]): 32 MICROGRAM/ML | MIC Catechin (EMRSA-16 [1]; [7]): >32 MICROGRAM/ML | MIC Oxacillin (EMRSA-16 [1]; [8]): 512 MICROGRAM/ML | MIC Catechin (S. aureus BB568; [9]): 32 MICROGRAM/ML | MIC Oxacillin (S. aureus BB568; [10]): 256 MICROGRAM/ML

Oc1cc(O)c2c(c1)O[C@H](c1ccc(O)c(O)c1)[C@@H](O)C2 [(+)-catechin]
MIC Catechin (EMRSA-15; [5]): >256 MICROGRAM/ML | MIC Oxacillin (EMRSA-15; [6]): 32 MICROGRAM/ML | MIC Catechin (EMRSA-16 [1]; [7]): >256 MICROGRAM/ML | MIC Oxacillin (EMRSA-16 [1]; [8]): 512 MICROGRAM/ML | MIC Catechin (S. aureus BB568; [9]): >256 MICROGRAM/ML | MIC Oxacillin (S. aureus BB568; [10]): 256 MICROGRAM/ML | MIC (S. aureus; the three strains tested): > 256 microgram/ml

O=C(O[C@@H]1Cc2c(O)cc(O)cc2O[C@@H]1c1ccc(O)c(O)c1)c1cc(O)c(O)c(O)c1 [(−)-epicatechingallate, 3-O-(−)-epicatechingallate]
reduction in cell numbers (EMRSA-16 [2]; 512 microgram/ml): 0.3 Log10 | reduction in cell numbers (EMRSA-16 [2]; 1024 microgram/ml): 0.85 Log10 | reduction in CFU/ml (EMRSA-16 [2]; 1024 microgram/ml, over the 24 h period): 5 Log10 | reduction in viable cell numbers (EMRSA-16 [2]; over the first two hour period, even at 8×MIC): did not give rise to a large reduction in viable cell numbers | MIC Oxacillin (EMRSA-15; [6]): 1 MICROGRAM/ML | MIC (EMRSA-15; [11]): 128 µg/mL (≈ 289 µM) | MIC Oxacillin (EMRSA-16 [1]; [8]): 1 MICROGRAM/ML | MIC (EMRSA-16 [1]; [11]): 128 µg/mL (≈ 289 µM) | MIC Oxacillin (S. aureus BB568; [10]): <1 MICROGRAM/ML | MIC Oxacillin (S. aureus BB568; BB568; oxacillin MIC in the presence of the compound (tested at 0.25×MIC); listed as epicatechin gallate): less than 1 MICROGRAM/ML | MIC (S. aureus BB568; Staphylococcus aureus, BB568, 24 h, read-out: MIC Catechin): 128 µg/mL (≈ 289 µM) | MIC (S. aureus; Staphylococcus aureus): 64 to 128 µg/mL (≈ 145 to 289 µM) | direct antistaphylococcal activity relative to (+)-catechin (S. aureus; greater activity than (+)-catechin): at least 4 fold | hemolysis ([3]; 4×MIC): did not give rise to hemolysis | hemolysis ([3]; 8×MIC): 21% | % Hemolysis ([3]; 512 mcg/ml): 6% | % Hemolysis ([3]; 1024 mcg/ml): 21% | effect on cell viability (EMRSA-16 [4]; 4× and 8×MIC, 10 min): little effect on cell viability | membrane permeability (EMRSA-16 [4]; 4×MIC): 48% | membrane permeability (EMRSA-16 [4]; 8×MIC): 64% | Membrane Effect % Control (BacLight) (EMRSA-16 [4]; 512 mcg/ml): 48% | Delta Log 10 (CFU/ml) (EMRSA-16 [4]; 512 mcg/ml): 0.0 | Membrane Effect % Control (BacLight) (EMRSA-16 [4]; 1024 mcg/ml): 64% | Delta Log 10 (CFU/ml) (EMRSA-16 [4]; 1024 mcg/ml): 0.1 | effect on cell wall morphology (S. aureus BB551): pseudomulticellular aggregates with increased cell wall thickening

O=C(O)c1cc(O)c(O)c(O)c1 [Gallic acid]
anti-staphylococcal activity (staphylococcal): no anti-staphylococcal activity

CCCCCCCC(=O)O [Octanoic acid]
MIC Oxacillin (EMRSA-15; [6]): 32 MICROGRAM/ML | MIC (EMRSA-15; [12]): 1020 µg/mL (≈ 7100 µM) | MIC Oxacillin (EMRSA-16 [1]; [8]): 512 MICROGRAM/ML | MIC (EMRSA-16 [1]; [12]): 1020 µg/mL (≈ 7100 µM) | MIC Oxacillin (S. aureus BB568; [10]): 256 MICROGRAM/ML | MIC (S. aureus BB568; Staphylococcus aureus, BB568, 24 h; read-out: MIC Catechin): 1020 µg/mL (≈ 7100 µM) | direct activity against S. aureus (S. aureus; result in words): no direct activity; also recorded: not active | capacity to reduce the oxacillin MIC (S. aureus; tested at 0.25×MIC): two-fold | hemolysis ([3]; 2×MIC): complete hemolysis | % Hemolysis ([3]; horse, 16 mcg/ml, pH 7.4): 3% | % Hemolysis ([3]; horse, 32 mcg/ml, pH 7.4): 4% | % Hemolysis ([3]; horse, 64 mcg/ml, pH 7.4): 100% | concentration giving significant membrane damage (EMRSA-16 [4]): > 1024 microgram/ml | Membrane Effect % Control (BacLight) (EMRSA-16 [4]; 16 mcg/ml): 74% | Delta Log 10 (CFU/ml) (EMRSA-16 [4]; 16 mcg/ml): −0.1 | Membrane Effect % Control (BacLight) (EMRSA-16 [4]; 32 mcg/ml): 75% | Delta Log 10 (CFU/ml) (EMRSA-16 [4]; 32 mcg/ml): 0.1 | Membrane Effect % Control (BacLight) (EMRSA-16 [4]; 64 mcg/ml): 2% | Delta Log 10 (CFU/ml) (EMRSA-16 [4]; 64 mcg/ml): >7.0

Cc1onc(-c2ccccc2)c1C(=O)N[C@@H]1C(=O)N2[C@@H]1SC(C)(C)[C@@H]2C(=O)O [Oxacillin, oxacillin]
MIC (EMRSA-15; Staphylococcus aureus; EMRSA-15; oxacillin alone; read-out: MIC Oxacillin): 32 µg/mL (≈ 79.7 µM) | MIC (EMRSA-16 [1]; Staphylococcus aureus; EMRSA-16; oxacillin alone; read-out: MIC Oxacillin): 512 µg/mL (≈ 1280 µM) | MIC (S. aureus BB568; Staphylococcus aureus; BB568; oxacillin alone; read-out: MIC Oxacillin): 256 µg/mL (≈ 638 µM)

CCCCCCCCCCCC(=O)O [dedecanoic acid, dedecanoic acid (lauric acid) (C12:0)]
anti-staphylococcal activity (staphylococcal): anti-staphylococcal activity

CCCCC/C=C\C/C=C\CCCCCCCC(=O)O [linoleic acid, linoleic acid (C18:8)]
anti-staphylococcal activity (staphylococcal): anti-staphylococcal activity
